# In patent publication US20140296212A1, “SUBSTITUTED PHENOXYPROPYLCYCLOAMINE DERIVATIVES AS HISTAMINE-3 (H3) RECEPTOR LIGANDS” (CEPHALON, INC., priority 2009, published 2014):
# Molecular target: T1, rat histamine H3 receptor (Rattus norvegicus, UniProt Q9QYN8)
# T1 construct: encoding the entire 445-amino-acid rat histamine H3 receptor; expressed in transfected cells
# Test: Rat H3 radioligand binding ([3H]-N-alpha-methylhistamine, SPA)
# Conditions: not given
# Text: The rat H3 receptor cDNA was PCR amplified from reverse-transcribed RNA pooled from rat thalamus, hypothalamus, striatum and prefrontal cortex with a sequence corresponding to by #338-1672 of Genbank file #NM_053506, encoding the entire 445-amino-acid rat histamine H3 receptor. This was engineered into the pIRES-neo3 mammalian expression vector, which was stably transfected into the CHO-A3 cell line (Euroscreen, Belgium), followed by clonal selection by limiting dilution. Cells were harvested and cell pellets were frozen (−80° C.). Cell pellets were resuspended in 5 mM Tris-HCl, pH 7.5 with 5 nM EDTA and a cocktail of protease inhibitors (Complete Protease Inhibitor Tablets, Roche Diagnostics). Cells were disrupted using a polytron cell homogenizer and the suspension was centrifuged at 1000×g for 10 minutes at 4° C. The pellet was discarded and the supernatant centrifuged at 40,000×g for 30 min at 4° C. This membrane pellet was washed in membrane buffer containing 50 mM Tris-HCl, pH 7.5 with 0.6 mM EDTA, 5 mM MgCl2 and protease inhibitors, recentrifuged as above and the final pellet resuspended in membrane buffer plus 250 mM sucrose and frozen at −80° C.
# (§1) Membranes were resuspended in 50 mM Tris HCl (pH 7.4), 5 mM MgCl2, 0.1% BSA. The membrane suspensions (10 μg protein per well) were incubated in a 96 well microtiter plate with [^3H]-N-alpha-methylhistamine (approximately 1 nM final concentration), test compounds at various concentrations (0.01 nM-30 μM) and scintillation proximity beads (Perkin Elmer, FlashBlueGPCR Scintillating Beads) in a final volume of 80 μl for 4 hours at room temperature, protected from light. Non-specific binding was determined in the presence of 10 μM clobenpropit. Radioligand bound to receptor, and therefore in proximity to the scintillation beads, was measured using a MicroBeta scintillation counter.
# T1 sequence (Q9QYN8 whole entry): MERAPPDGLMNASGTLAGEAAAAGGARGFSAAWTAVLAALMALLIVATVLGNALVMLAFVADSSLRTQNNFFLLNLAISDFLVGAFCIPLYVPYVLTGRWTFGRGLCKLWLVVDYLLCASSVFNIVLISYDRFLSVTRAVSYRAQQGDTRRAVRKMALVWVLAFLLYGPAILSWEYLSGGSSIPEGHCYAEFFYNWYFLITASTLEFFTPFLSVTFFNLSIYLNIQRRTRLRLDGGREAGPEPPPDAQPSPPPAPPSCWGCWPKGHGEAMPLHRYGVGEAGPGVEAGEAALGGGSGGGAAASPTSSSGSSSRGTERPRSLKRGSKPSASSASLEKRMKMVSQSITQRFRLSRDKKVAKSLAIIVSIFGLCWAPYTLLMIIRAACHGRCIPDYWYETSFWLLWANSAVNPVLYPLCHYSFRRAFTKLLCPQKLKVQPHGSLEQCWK
row,Structure (SMILES),Ki
1,"CC1CCCN1CCCOc1ccc(C(=O)CN2CCOCC2)cc1 (stereo not drawn) [Example 1, 1-{4-[3-(2-Methyl-pyrrolidin-1-yl)-propoxy]-phenyl}-2-morpholin-4-yl-ethanone]",0.1 to 100 nM
2,"C[C@@H]1CCCN1CCCOc1ccc(C(=O)CN2CCOCC2)cc1 [Example 41, 1-{4-[3-((R)-2-Methyl-pyrrolidin-1-yl)-propoxy]-phenyl}-2-morpholin-4-yl-ethanone]",0.1 to 100 nM
3,"C[C@H]1CCCN1CCCOc1ccc(C(=O)CN2CCOCC2)cc1 [Example 42, 1-{4-[3-((S)-2-Methyl-pyrrolidin-1-yl)-propoxy]-phenyl}-2-morpholin-4-yl-ethanone]",501 to 1000 nM

# Same assay, conditions: membranes of CHO-A3 cells expressing rat H3; [3H]-N-alpha-methylhistamine; read-out: Rat H3 Ki
row,Ki,Structure (SMILES)
1,0.1 to 100 nM,"C[C@@H]1CN(CC(=O)c2ccc(OCCCN3CCC[C@H]3C)cc2)C[C@H](C)O1 [Example 38, 2-((2R,6S)-2,6-Dimethyl-morpholin-4-yl)-1-{4-[3-((R)-2-methyl-pyrrolidin-1-yl)-propoxy]-phenyl}-ethanone]"
2,101 to 500 nM,"CC(C)N1CCC(Oc2ccc(C(=O)CN3CCOCC3)cc2)CC1 [Example 45, 1-[4-(1-Isopropyl-piperidin-4-yloxy)-phenyl]-2-morpholin-4-yl-ethanone]"

# Molecular target: T2, human H3 receptor (Homo sapiens, UniProt Q9Y5N1)
# T2 construct: expressed in transfected cells
# Test: Human H3 radioligand binding ([3H]-N-alpha-methylhistamine, SPA)
# Conditions: membranes of CHO cells expressing human H3
# Procedure: Cell pellets were resuspended in 5 mM Tris-HCl, pH 7.5 with 5 nM EDTA and a cocktail of protease inhibitors (Complete Protease Inhibitor Tablets, Roche Diagnostics). Cells were disrupted using a polytron cell homogenizer and the suspension was centrifuged at 1000×g for 10 minutes at 4° C. The pellet was discarded and the supernatant centrifuged at 40,000×g for 30 min at 4° C. This membrane pellet was washed in membrane buffer containing 50 mM Tris-HCl, pH 7.5 with 0.6 mM EDTA, 5 mM MgCl2 and protease inhibitors, recentrifuged as above and the final pellet resuspended in membrane buffer plus 250 mM sucrose and frozen at −80° C.
# as §1
# T2 sequence (Q9Y5N1 whole entry): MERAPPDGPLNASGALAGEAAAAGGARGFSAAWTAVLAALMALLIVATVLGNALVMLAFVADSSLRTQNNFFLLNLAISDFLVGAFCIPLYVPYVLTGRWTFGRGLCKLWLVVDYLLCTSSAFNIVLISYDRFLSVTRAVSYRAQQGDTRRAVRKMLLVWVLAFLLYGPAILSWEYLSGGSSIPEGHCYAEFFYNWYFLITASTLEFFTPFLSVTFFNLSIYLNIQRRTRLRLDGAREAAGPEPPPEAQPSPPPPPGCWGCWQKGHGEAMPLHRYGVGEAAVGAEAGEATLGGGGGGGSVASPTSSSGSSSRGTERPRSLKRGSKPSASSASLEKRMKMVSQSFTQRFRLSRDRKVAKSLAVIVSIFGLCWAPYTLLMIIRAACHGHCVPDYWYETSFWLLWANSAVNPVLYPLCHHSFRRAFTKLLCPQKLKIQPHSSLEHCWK
row,Structure (SMILES),Ki
1,"CC(C)N1CCC(Oc2ccc(C(=O)CN3CCOCC3)cc2)CC1 [Example 45, 1-[4-(1-Isopropyl-piperidin-4-yloxy)-phenyl]-2-morpholin-4-yl-ethanone]",0.1 to 100 nM
2,"CC(=O)N1CCN(C(C)C(=O)c2ccc(OCCCN3CCCCC3)cc2)CC1 (stereo not drawn) [Example 32, 2-(4-Acetyl-piperazin-1-yl)-1-[4-(3-piperidin-1-yl-propoxy)-phenyl]-propan-1-one]",0.1 to 100 nM
3,"CC(C(=O)c1ccc(OCCCN2CCCCC2)cc1)N1CCN(c2ccccc2)CC1 (stereo not drawn) [Example 31, 2-(4-Phenyl-piperazin-1-yl)-1-[4-(3-piperidin-1-yl-propoxy)-phenyl]-propan-1-one]",0.1 to 100 nM
4,"CC(C(=O)c1ccc(OCCCN2CCCC2)cc1)N1CCOCC1 (stereo not drawn) [Example 25, 2-Morpholin-4-yl-1-[4-(3-pyrrolidin-1-yl-propoxy)-phenyl]-propan-1-one]",0.1 to 100 nM
5,"CC1CCCN1CCCOc1ccc(C(=O)C(C)N2CCSCC2)cc1 (stereo not drawn) [Example 35, 1-{4-[3-(2-Methyl-pyrrolidin-1-yl)-propoxy]-phenyl}-2-thiomorpholin-4-yl-propan-1-one]",0.1 to 100 nM
6,"CC(C(=O)c1ccc(OCCCN2CCCCC2)cc1)N1CCOCC1 (stereo not drawn) [Example 26, 2-Morpholin-4-yl-1-[4-(3-piperidin-1-yl-propoxy)-phenyl]-propan-1-one]",0.1 to 100 nM
7,"CC(C(=O)c1ccc(OCCCN2CCCC2)cc1)N1CCN(c2ccccc2)CC1 (stereo not drawn) [Example 30, 2-(4-Phenyl-piperazin-1-yl)-1-[4-(3-pyrrolidin-1-yl-propoxy)-phenyl]-propan-1-one]",0.1 to 100 nM
8,"O=C(CN1Cc2ccccc2C1)c1ccc(OCCCN2CCCCC2)cc1 [Example 6, 2-(1,3-Dihydro-isoindol-2-yl)-1-[4-(3-piperidin-1-yl-propoxy)-phenyl]-ethanone]",0.1 to 100 nM
9,"O=C(CN1CCN(c2ccccc2)CC1)c1ccc(OCCCN2CCCC2)cc1 [Example 17, 2-(4-Phenyl-piperazin-1-yl)-1-[4-(3-pyrrolidin-1-yl-propoxy)-phenyl]-ethanone]",0.1 to 100 nM
10,"CC(C(=O)c1ccc(OCCCN2CCCCC2)cc1)N1CCSCC1 (stereo not drawn) [Example 34, 1-[4-(3-Piperidin-1-yl-propoxy)-phenyl]-2-thiomorpholin-4-yl-propan-1-one]",0.1 to 100 nM
11,"O=C(CN1CCc2ccccc2C1)c1ccc(OCCCN2CCCCC2)cc1 [Example 4, 2-(3,4-Dihydro-1H-isoquinolin-2-yl)-1-[4-(3-piperidin-1-yl-propoxy)-phenyl]-ethanone]",0.1 to 100 nM
12,CC(C(=NOCc1ccccc1)c1ccc(OCCCN2CCCCC2)cc1)N1CCCCC1 (stereo not drawn) [Example 164],0.1 to 100 nM
13,"CC(C(=O)c1ccc(OCCCN2CCCC2)cc1)N1CCCCC1 (stereo not drawn) [Example 14, 2-Piperidin-1-yl-1-[4-(3-pyrrolidin-1-yl-propoxy)-phenyl]-propan-1-one]",0.1 to 100 nM
14,"CC(C(=O)c1ccc(OCCCN2CCCC2)cc1)N1CCCC1 (stereo not drawn) [Example 23, 2-Pyrrolidin-1-yl-1-[4-(3-pyrrolidin-1-yl-propoxy)-phenyl]-propan-1-one]",0.1 to 100 nM
15,"CC1CCCN1CCCOc1ccc(C(=O)C(C)N2CCCC2)cc1 (stereo not drawn) [Example 24, 1-{4-[3-(2-Methyl-pyrrolidin-1-yl)-propoxy]-phenyl}-2-pyrrolidin-1-yl-propan-1-one]",0.1 to 100 nM
16,"O=C(CN1CCc2ccccc2C1)c1ccc(OCCCN2CCCC2)cc1 [Example 5, 2-(3,4-Dihydro-1H-isoquinolin-2-yl)-1-[4-(3-pyrrolidin-1-yl-propoxy)-phenyl]-ethanone]",0.1 to 100 nM
17,CON=C(c1ccc(OCCCN2CCCC2C)cc1)C(C)N1CCCCC1 (stereo not drawn) [Example 169],0.1 to 100 nM
18,CON=C(c1ccc(OCCCN2CCCCC2)cc1)C(C)N1CCCCC1 (stereo not drawn) [Example 163],0.1 to 100 nM
19,"CC(=O)N1CCN(C(C)C(=O)c2ccc(OCCCN3CCCC3C)cc2)CC1 (stereo not drawn) [Example 33, 2-(4-Acetyl-piperazin-1-yl)-1-{4-[3-(2-methyl-pyrrolidin-1-yl)-propoxy]-phenyl}-propan-1-one]",0.1 to 100 nM
20,"O=C(CN1CCCc2ccccc21)c1ccc(OCCCN2CCCCC2)cc1 [Example 7, 2-(3,4-Dihydro-2H-quinolin-1-yl)-1-[4-(3-piperidin-1-yl-propoxy)-phenyl]-ethanone]",0.1 to 100 nM

# The next lines start with the values.
row,Ki,Structure (SMILES)
1,0.1 to 100 nM,"C[C@@H]1CN(CC(=O)c2ccc(OCCCN3CCC[C@H]3C)cc2)C[C@H](C)O1 [Example 38, 2-((2R,6S)-2,6-Dimethyl-morpholin-4-yl)-1-{4-[3-((R)-2-methyl-pyrrolidin-1-yl)-propoxy]-phenyl}-ethanone]"
2,0.1 to 100 nM,"C[C@H]1CCCN1CCCOc1ccc(C(=O)CN2CCCCC2)cc1 [Example 13, 1-{4-[3-((S)-2-Methyl-pyrrolidin-1-yl)-propoxy]-phenyl}-2-piperidin-1-yl-ethanone]"
3,0.1 to 100 nM,"O=C(CN1CCCCC1)c1ccc(OCCCN2CCCC2)cc1 [Example 3, 2-Piperidin-1-yl-1-[4-(3-pyrrolidin-1-yl-propoxy)-phenyl]-ethanone]"
4,0.1 to 100 nM,C[C@@H]1CCCN1CCCOc1ccc(/C(CN2CCOCC2)=N/OC2CCCCC2)cc1 [Example 170]
5,0.1 to 100 nM,"C[C@@H]1CC[C@@H](C)N1CCCOc1ccc(C(=O)CN2CCCCC2)cc1 [Example 12, 1-{4-[3-((2R,5R)-2,5-Dimethyl-pyrrolidin-1-yl)-propoxy]-phenyl}-2-piperidin-1-yl-ethanone]"
6,0.1 to 100 nM,"CC(C)N1CCN(CCCOc2ccc(C(=O)CN3CCCCC3)cc2)CC1 [Example 16, 1-{4-[3-(4-Isopropyl-piperazin-1-yl)-propoxy]-phenyl}-2-piperidin-1-yl-ethanone]"
7,0.1 to 100 nM,CO/N=C(/CN1CCCCC1)c1ccc(OCCCN2CCC[C@H]2C)cc1 [Example 161]
8,0.1 to 100 nM,CC(C)O/N=C(\CN1CCOCC1)c1ccc(OCCCN2CCC[C@H]2C)cc1 [Example 171]
9,101 to 500 nM,"CC(C(=O)c1ccc(OCCCN2CCC[C@@H]2C)cc1)N1CCCCC1=O (stereo partly drawn) [Example 36, 1-(1-Methyl-2-{4-[3-((S)-2-methyl-pyrrolidin-1-yl)-propoxy]-phenyl}-2-oxo-ethyl)-piperidin-2-one]"
10,0.1 to 100 nM,"CC1CCCCN1CCCOc1ccc(C(=O)CN2CCCCC2)cc1 (stereo not drawn) [Example 10, 1-{4-[3-(2-Methyl-piperidin-1-yl)-propoxy]-phenyl}-2-piperidin-1-yl-ethanone]"
11,0.1 to 100 nM,CO/N=C(\CN1CCCCC1)c1ccc(OCCCN2CCC[C@H]2C)cc1 [Example 159]
12,0.1 to 100 nM,CC1CCCN1CCCOc1ccc(/C(CN2CCN(c3ccccc3)CC2)=N/OC(C)(C)C)cc1 (stereo not drawn) [Example 166]
13,0.1 to 100 nM,"CC1CCCC(C)N1CCCOc1ccc(C(=O)CN2CCCCC2)cc1 (stereo not drawn) [Example 11, 1-{4-[3-(2,6-Dimethyl-piperidin-1-yl)-propoxy]-phenyl}-2-piperidin-1-yl-ethanone]"
14,0.1 to 100 nM,"O=C(CN1CCCCC1)c1ccc(OCCCN2CCCCC2)cc1 [Example 2, 2-Piperidin-1-yl-1-[4-(3-piperidin-1-yl-propoxy)-phenyl]-ethanone]"
15,0.1 to 100 nM,"C[C@@H]1CCCN1CCCOc1ccc(C(=O)CN2CCc3ccccc3C2)cc1 [Example 9, 2-(3,4-Dihydro-1H-isoquinolin-2-yl)-1-{4-[3-((R)-2-methyl-pyrrolidin-1-yl)-propoxy]-phenyl}-ethanone]"
16,0.1 to 100 nM,"CC1CCCN1CCCOc1ccc(C(=O)CN2CCN(c3ccccc3)CC2)cc1 (stereo not drawn) [Example 18, 1-{4-[3-(2-Methyl-pyrrolidin-1-yl)-propoxy]-phenyl}-2-(4-phenyl-piperazin-1-yl)-ethanone]"
17,0.1 to 100 nM,"CC1CCCN1CCCOc1ccc(C(=O)C(C)N2CCN(c3ccccc3)CC2)cc1 (stereo not drawn) [Example 28, 1-{4-[3-(2-Methyl-pyrrolidin-1-yl)-propoxy]-phenyl}-2-(4-phenyl-piperazin-1-yl)-propan-1-one]"
